Experimental data reported in article PMC3038857, “Using Nuclear Receptor Activity to Stratify Hepatocarcinogens” (PLoS ONE, 2011).
Where two headings read alike, the source gives them in different places.

Legend:
Rat Liver [1] = conditions: ref ToxRefDB, cited from earlier work
Rat Liver [2] = conditions: ref ToxRefDB, cited from earlier work; remark: listed apart in the source
CAR (NR1I3) = molecular target: T1, CAR (NR1I3) (Homo sapiens, UniProt Q14994); assay: ATG_PBREM_CIS: Factorial reporter gene assay (HepG2); format: cell-based; parameters: endogenous in cells; host or cells: HepG2; scale not given here; conditions: HepG2
T1 sequence (Q14994 1-352): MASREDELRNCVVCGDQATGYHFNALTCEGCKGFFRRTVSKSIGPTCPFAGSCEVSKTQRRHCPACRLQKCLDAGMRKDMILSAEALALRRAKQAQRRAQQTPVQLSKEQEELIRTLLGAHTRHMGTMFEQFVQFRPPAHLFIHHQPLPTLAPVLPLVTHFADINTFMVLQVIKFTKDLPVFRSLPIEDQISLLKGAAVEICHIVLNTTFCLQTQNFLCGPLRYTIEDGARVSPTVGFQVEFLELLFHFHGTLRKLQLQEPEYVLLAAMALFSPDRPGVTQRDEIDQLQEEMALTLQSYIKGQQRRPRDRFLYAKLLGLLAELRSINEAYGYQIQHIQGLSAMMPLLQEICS
Procedure, shortened: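 HepG2 cells transfected with multiplexed reporter libraries: cis-acting binding-site reporters (CIS) and a one-hybrid nuclear-receptor trans system (TRANS). Chemicals tested at seven concentrations, starting at the maximum tolerated concentration with three-fold serial dilutions.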

LXRa (NR1H3) = molecular target: T2, LXRa (NR1H3) (Homo sapiens, UniProt Q13133); assay: ATG_LXRa_TRANS: Factorial reporter gene assay (HepG2); format: cell-based; conditions: HepG2; scale not given, looks like -log10 of molar active concentration; 0 = no activity
T2 construct: expressed in transfected cells; host or cells: HepG2
T2 sequence (Q13133 1-447): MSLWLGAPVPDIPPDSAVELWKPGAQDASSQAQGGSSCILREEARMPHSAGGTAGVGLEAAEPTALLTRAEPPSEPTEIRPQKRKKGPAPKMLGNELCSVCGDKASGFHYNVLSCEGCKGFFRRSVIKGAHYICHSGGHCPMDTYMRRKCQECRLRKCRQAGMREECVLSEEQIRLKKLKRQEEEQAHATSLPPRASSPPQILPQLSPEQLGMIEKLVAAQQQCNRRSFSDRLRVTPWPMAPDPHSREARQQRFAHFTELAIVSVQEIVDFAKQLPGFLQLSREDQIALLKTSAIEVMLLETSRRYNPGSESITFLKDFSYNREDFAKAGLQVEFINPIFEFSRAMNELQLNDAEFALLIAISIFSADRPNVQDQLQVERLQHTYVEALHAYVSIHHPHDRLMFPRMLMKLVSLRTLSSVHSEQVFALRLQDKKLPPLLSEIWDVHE
Experimental: (§1) A multiple reporter transcription unit (MRTU) library consisting of 48 transcription factor binding sites was transfected into the HepG2 human liver hepatoma cell line. In addition to the cis-acting reporter genes (CIS), a modification of the approach was used to generate a trans-system (TRANS) with a mammalian one-hybrid assay consisting of an additional 25 MRTU library reporting the activity of nuclear receptor super-family members. […] These assays were performed by Attagene Inc. (Morrisville NC) under contract to EPA.
(§2) In addition to the cis-acting reporter genes (CIS), a modification of the approach was used to generate a trans-system (TRANS) with a mammalian one-hybrid assay consisting of an additional 25 MRTU library reporting the activity of nuclear receptor super-family members. […] Chemicals were then tested in the CIS and TRANS assays at seven concentrations starting at the MTC and followed by three-fold serial dilutions. These assays were performed by Attagene Inc. (Morrisville NC) under contract to EPA. Detailed description of the methods, data and analysis methods for this dataset will be presented in a separate publication.

LXRb (NR1H2) = molecular target: T3, LXRb (NR1H2) (Homo sapiens, UniProt P55055); assay: ATG_LXRb_TRANS: Factorial reporter gene assay (HepG2); format: cell-based; conditions: HepG2; scale not given, looks like -log10 of molar active concentration; 0 = no activity
T3 construct: expressed in transfected cells; host or cells: HepG2
T3 sequence (P55055 1-460): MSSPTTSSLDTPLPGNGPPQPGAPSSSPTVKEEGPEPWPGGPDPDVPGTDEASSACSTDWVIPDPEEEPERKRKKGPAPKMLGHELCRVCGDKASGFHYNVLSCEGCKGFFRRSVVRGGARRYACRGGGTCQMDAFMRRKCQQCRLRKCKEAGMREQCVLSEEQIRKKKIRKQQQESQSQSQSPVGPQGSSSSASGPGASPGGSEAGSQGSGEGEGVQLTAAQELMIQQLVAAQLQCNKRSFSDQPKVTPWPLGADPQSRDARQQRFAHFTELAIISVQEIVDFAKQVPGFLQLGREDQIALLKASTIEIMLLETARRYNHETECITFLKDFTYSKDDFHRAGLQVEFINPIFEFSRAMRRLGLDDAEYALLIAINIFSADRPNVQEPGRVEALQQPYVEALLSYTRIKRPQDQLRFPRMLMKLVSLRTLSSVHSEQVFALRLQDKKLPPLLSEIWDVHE
Experimental: as §1, §2

[3] = molecular target: T4, PPARA (peroxisome proliferator-activated receptor alpha) (Homo sapiens, UniProt Q07869); assay: ATG_PPARa_TRANS: Factorial reporter gene assay (HepG2); format: cell-based; parameters: scale not given here; conditions: scale not given, looks like -log10 of molar active concentration, 0 = no activity
T4 construct: expressed in transfected cells; host or cells: HepG2
T4 sequence (Q07869 1-468): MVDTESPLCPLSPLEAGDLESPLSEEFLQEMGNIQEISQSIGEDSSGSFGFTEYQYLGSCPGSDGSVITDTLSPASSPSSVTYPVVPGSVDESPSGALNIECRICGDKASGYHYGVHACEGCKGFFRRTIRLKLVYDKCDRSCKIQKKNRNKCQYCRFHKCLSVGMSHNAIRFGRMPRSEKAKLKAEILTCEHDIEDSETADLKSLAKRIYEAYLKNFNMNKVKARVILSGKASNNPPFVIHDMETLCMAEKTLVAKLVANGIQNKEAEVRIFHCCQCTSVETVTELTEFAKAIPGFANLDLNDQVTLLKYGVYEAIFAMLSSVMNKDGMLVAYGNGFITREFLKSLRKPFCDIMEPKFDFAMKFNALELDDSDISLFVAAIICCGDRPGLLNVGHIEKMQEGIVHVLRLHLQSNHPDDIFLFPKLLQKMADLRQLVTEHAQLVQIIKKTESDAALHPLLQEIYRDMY
Experimental: as §1, §2

ERa (ESR1) = molecular target: T5, ERa (ESR1) (Homo sapiens, UniProt P03372); assay: NCGC_ERalpha_Antagonist: GAL4 BLAM Reporter gene assay: ERa; format: cell-based; conditions: antagonist mode; scale not given, looks like -log10 of molar active concentration; 0 = no activity
T5 construct: expressed in transfected cells; host or cells: HEK293

[4] = rat chronic study, liver, any lesion, coded 6 / 0, code not explained here
[5] = rat chronic study, liver, preneoplastic lesion, coded 6 / 0, code not explained here
[6] = scale not given, looks like -log10 of molar active concentration, 0 = no activity

T5 sequence (P03372 whole entry, the tested form may be a part): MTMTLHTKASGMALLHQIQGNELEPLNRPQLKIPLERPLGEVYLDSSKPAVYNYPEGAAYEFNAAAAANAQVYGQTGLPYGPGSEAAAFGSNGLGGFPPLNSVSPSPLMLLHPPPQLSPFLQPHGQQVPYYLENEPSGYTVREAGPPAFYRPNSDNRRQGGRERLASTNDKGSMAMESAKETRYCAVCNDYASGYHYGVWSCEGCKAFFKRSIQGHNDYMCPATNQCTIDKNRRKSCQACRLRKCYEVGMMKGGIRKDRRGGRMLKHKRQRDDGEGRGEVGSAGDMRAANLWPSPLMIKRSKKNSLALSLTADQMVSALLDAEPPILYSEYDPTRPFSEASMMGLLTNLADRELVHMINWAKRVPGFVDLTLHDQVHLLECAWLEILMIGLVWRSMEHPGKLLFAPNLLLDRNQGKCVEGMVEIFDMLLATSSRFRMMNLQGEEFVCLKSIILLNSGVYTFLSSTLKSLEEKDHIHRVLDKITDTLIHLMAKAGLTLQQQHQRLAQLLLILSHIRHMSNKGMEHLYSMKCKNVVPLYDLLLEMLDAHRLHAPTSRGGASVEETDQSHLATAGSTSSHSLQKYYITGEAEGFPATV

| SMILES | ATG_LXRa_TRANS (LXRa (NR1H3)) | ATG_LXRb_TRANS (LXRb (NR1H2)) | ATG_PPARa_TRANS [3] | NCGC_ERalpha_Antagonist (ERa (ESR1)) | CHR_Rat_Liver_1_AnyLesion (Rat Liver [1]; [4]) | CHR_Rat_Liver_2_PreneoplasticLesion (Rat Liver [2]; [5]) | ATG_PBREM_CIS (CAR (NR1I3); [6]) | further results |
| --- | --- | --- | --- | --- | --- | --- | --- | --- |
| CCCN(CCC)c1c([N+](=O)[O-])cc(C(F)(F)F)c(N)c1[N+](=O)[O-] [r252] |  |  |  |  |  |  |  | CHR_Rat_Liver_1_AnyLesion (Rat Liver [1]; rat, chronic study): 6; CHR_Rat_Liver_2_PreneoplasticLesion (Rat Liver [2]; rat, chronic study): 0; ATG_PBREM_CIS (CAR (NR1I3)): 4.337 |
| CC(C)=CC1C(C(=O)OCc2coc(Cc3ccccc3)c2)C1(C)C (stereo not drawn) [r280] |  |  |  |  |  |  |  | CHR_Rat_Liver_1_AnyLesion (Rat Liver [1]; chronic study, rat liver): 6; CHR_Rat_Liver_2_PreneoplasticLesion (Rat Liver [2]; chronic study, rat liver): 6 |
| Nc1cnn(-c2ccccc2)c(=O)c1Cl [r56] | 0 | 0 | 0 | 0 | 0 | 0 | 0 |  |
| COc1nc(C)nc(NC(=O)NS(=O)(=O)c2ccccc2Cl)n1 [r63] | 0 | 0 | 0 | 0 | 6 | 0 | 0 |  |
| C#CCC1=C(C)[C@H](OC(=O)[C@H]2[C@H](C=C(C)C)C2(C)C)CC1=O [r249] |  |  |  |  |  |  |  | CHR_Rat_Liver_1_AnyLesion (Rat Liver [1]; rat, chronic study): 6; CHR_Rat_Liver_2_PreneoplasticLesion (Rat Liver [2]; rat, chronic study): 0; ATG_PBREM_CIS (CAR (NR1I3)): 5.276 |
| CCc1ccc(C(=O)NN(C(=O)c2cc(C)cc(C)c2)C(C)(C)C)cc1 [r290] |  |  |  |  |  |  |  | CHR_Rat_Liver_1_AnyLesion (Rat Liver [1]; chronic study, rat liver): 6; CHR_Rat_Liver_2_PreneoplasticLesion (Rat Liver [2]; chronic study, rat liver): 0 |
| CC(C)N1C(=O)c2ccccc2NS1(=O)=O [r37] | 4.357 | 4.357 | 0 | 0 | 0 | 0 |  |  |
| COC(=O)c1ccccc1CS(=O)(=O)NC(=O)Nc1nc(OC)cc(OC)n1 [r33] | 0 | 4.347 | 0 | 0 |  |  | 0 |  |
| CC(C)Oc1cc(-n2nc(C(C)(C)C)oc2=O)c(Cl)cc1Cl [row 225] |  |  |  |  |  |  |  | CHR_Rat_Liver_1_AnyLesion (Rat Liver [1]; chronic rat study, liver): 6; CHR_Rat_Liver_2_PreneoplasticLesion (Rat Liver [2]; chronic rat study, liver): 6 |
| CSc1nc(NC(C)C)nc(NC(C)C)n1 [r256] |  |  |  |  |  |  |  | CHR_Rat_Liver_1_AnyLesion (Rat Liver [1]; rat, chronic study): 0; CHR_Rat_Liver_2_PreneoplasticLesion (Rat Liver [2]; rat, chronic study): 0 |
| Cc1ccccc1CO[C@@H]1C[C@@]2(C(C)C)CC[C@]1(C)O2 [r64] | 4.377 | 0 | 0 |  | 6 | 0 | 0 |  |
| CCC(C)Nc1c([N+](=O)[O-])cc(C(C)(C)C)cc1[N+](=O)[O-] (stereo not drawn) [r48] | 0 | 0 | 0 | 0 |  |  |  |  |
| N#Cc1c(Cl)c(Cl)c(Cl)c(C#N)c1Cl [r58] | 0 | 0 | 0 | 0 |  |  | 0 |  |
